Reference: the supplement of paper PMC8671470
± gives the standard deviation of the averaged measurements.

How the values were obtained:
Conditions in all cases: 72 h
KCL-22 [1] = tested on: KCL-22
Procedure, shortened: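 In 384-well plates holding acoustically pre-printed compounds at five tenfold doses from 1 to 10,000 nM, in duplicate, fifteen myeloid leukaemia cell lines were grown in RPMI 1640 for 72 h at 37 °C with 5% CO2. Luminescent ATP viability was scaled between vehicle and a positive control at 10 µM. The IC50 was then taken from log-logistic dose–response fits with four parameters.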

HL-60 [2] = assay: cell viability (% survival relative to DMSO control); higher = less cytotoxic
Procedure, shortened: (§1)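 In 384-well plates, the full library was rescreened in duplicate on HL-60 cells in RPMI 1640 with 10% FBS, at 1–10,000 nM in five tenfold concentrations, for 72 h at 37 °C, 5% CO2. Each run also held DMSO or 100 nM of one of three metabolic inhibitors. Viability was measured by CellTiter-Glo and normalised to DMSO wells and to wells with proteasome inhibitor, present at 10 μM. Any area under the curve comes from four-parameter log-logistic fitting with drc and PharmacoGx.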

BV-173 = assay: cell viability (% survival relative to DMSO control, bortezomib = 0%); higher = less cytotoxic
Procedure, shortened: (§2)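 Reported values are percent survival from duplicate wells, averaged. Fifteen myeloid leukaemia cell lines were treated in 384-well plates with compounds at 1, 10, 100, 1000 or 10000 nM for 72 h at 37 °C in 5% CO2. Signals from CellTiter-Glo luminescence were scaled with vehicle as 100% and a 10 µM positive control as 0%.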

HEL = assay: as above
Procedure, shortened: as §2

HL-60 [3] = assay: as above
Procedure, shortened: as §2

K-562 = assay: as above
Procedure, shortened: as §2

KCL-22 [4] = assay: as above
Procedure, shortened: as §2

KG-1 = assay: as above
Procedure, shortened: as §2

KU-812 = assay: as above
Procedure, shortened: as §2

LAMA-84 = assay: as above
Procedure, shortened: as §2

ML-2 = assay: as above
Procedure, shortened: as §2

MOLM-13 = assay: as above
Procedure, shortened: as §2

MV4-11 = assay: as above
Procedure, shortened: as §2

Mono-Mac-6 = assay: as above
Procedure, shortened: as §2

NOMO-1 = assay: as above
Procedure, shortened: as §2

SHI-1 = assay: as above
Procedure, shortened: as §2

THP-1 = assay: as above
Procedure, shortened: as §2

HL-60 [5] = assay: area under dose-response curve (viability, 1 nM-10 uM) (fraction (0-1)); higher = more sensitive
Procedure, shortened: as §1

Cl.NC(CCC(=O)Nc1ccc([N+](=O)[O-])cc1)C(=O)O (stereo not given) [GPNA]
Conditions	IC50 (cell viability) [µM]
KCL-22 [1]	> 10

cell viability [%], HL-60 [2]
Conditions	0.001 µM	0.01 µM	0.1 µM	1 µM	10 µM
co-treatment: AZD3965 100 nM	96.99 ± 0.35	97.1 ± 2.5	103.3 ± 0.85	102 ± 2.1	94.3 ± 2.4
co-treatment: DMSO vehicle	98.13 ± 0.34	100 ± 4.6	98.7 ± 5.5	102 ± 4.2	98.5 ± 2.3
co-treatment: GSK2194069 100 nM	99.6 ± 1.1	104 ± 9.2	99.4 ± 5.2	85.4 ± 20	96.8 ± 1.4
co-treatment: pictilisib 100 nM	100.2 ± 0.41	97.4 ± 1.8	98.5 ± 1.1	98.7 ± 7.6	92.5 ± 1.4

Conditions	area under dose-response curve, co-treatment: AZD3965 100 nM	area under dose-response curve, co-treatment: DMSO vehicle	area under dose-response curve, co-treatment: GSK2194069 100 nM	area under dose-response curve, co-treatment: pictilisib 100 nM	cell viability, 1 nM [%]	cell viability, 10 nM [%]	cell viability, 100 nM [%]	cell viability, 1000 nM [%]	cell viability, 10000 nM [%]
BV-173	–	–	–	–	114	106	94.1	101	119
HEL	–	–	–	–	95.2	104	106	91.5	104
HL-60 [3]	–	–	–	–	103	60.6	104	99.3	125
HL-60 [5]	< 0.0301	< 0.0301	< 0.0301	< 0.0301	–	–	–	–	–
K-562	–	–	–	–	108	96.3	100	109	120
KCL-22 [4]	–	–	–	–	106	91	110	96.5	102
KG-1	–	–	–	–	112	115	95.9	102	108
KU-812	–	–	–	–	108	95.5	103	96.4	110
LAMA-84	–	–	–	–	109	109	98	111	100
ML-2	–	–	–	–	107	90.5	98.9	107	109
MOLM-13	–	–	–	–	101	99.6	109	98.2	134
MV4-11	–	–	–	–	117	93.5	100	99.5	124
Mono-Mac-6	–	–	–	–	92.2	96.4	105	98.3	104
NOMO-1	–	–	–	–	107	102	101	105	105
SHI-1	–	–	–	–	107	91.6	94.9	99.5	98.3
THP-1	–	–	–	–	106	101	101	102	104

COc1ccc2c(C(=S)N(C)CC(=O)O)cccc2c1C(F)(F)F [Tolrestat]
Conditions	IC50 (cell viability) [µM]
KCL-22 [1]	> 10

cell viability [%], HL-60 [2]
Conditions	0.001 µM	0.01 µM	0.1 µM	1 µM	10 µM
co-treatment: AZD3965 100 nM	97.3 ± 1.8	106 ± 5.3	104 ± 3.8	97.9 ± 4.6	98.253 ± 0.033
co-treatment: DMSO vehicle	96 ± 0.68	106 ± 3.4	104 ± 2.6	99.23 ± 0.18	103.9 ± 0.94
co-treatment: GSK2194069 100 nM	99 ± 1.9	104.6 ± 0.97	97.5 ± 1.3	94.1 ± 4.1	97.1 ± 8.5
co-treatment: pictilisib 100 nM	95.7 ± 3	104 ± 8.2	96.8 ± 5.6	88.1 ± 8.6	100 ± 2

Conditions	area under dose-response curve, co-treatment: AZD3965 100 nM	area under dose-response curve, co-treatment: DMSO vehicle	area under dose-response curve, co-treatment: GSK2194069 100 nM	area under dose-response curve, co-treatment: pictilisib 100 nM	cell viability, 1 nM [%]	cell viability, 10 nM [%]	cell viability, 100 nM [%]	cell viability, 1000 nM [%]	cell viability, 10000 nM [%]
BV-173	–	–	–	–	84.3	108	86.1	88.5	101
HEL	–	–	–	–	91.2	98.9	95	93	101
HL-60 [3]	–	–	–	–	107	104	122	49.1	101
HL-60 [5]	< 0.0301	< 0.0301	< 0.0301	< 0.0301	–	–	–	–	–
K-562	–	–	–	–	95.4	104	87.4	99.8	105
KCL-22 [4]	–	–	–	–	94.8	103	105	106	106
KG-1	–	–	–	–	91.8	95.3	95.6	93.5	101
KU-812	–	–	–	–	88.6	118	99.8	90.8	104
LAMA-84	–	–	–	–	97.7	106	100	95.6	98.6
ML-2	–	–	–	–	90.2	99	103	111	97.8
MOLM-13	–	–	–	–	105	149	63.3	105	88.5
MV4-11	–	–	–	–	97.4	109	98.2	101	86.3
Mono-Mac-6	–	–	–	–	86.5	113	94.1	113	95.4
NOMO-1	–	–	–	–	97.2	107	106	118	95.5
SHI-1	–	–	–	–	98.6	104	88.1	108	101
THP-1	–	–	–	–	93.9	94.8	103	104	94.4
